Results: the NIST ThermoML archive (doi:10.1007/s10765-012-1185-1)
Numbers after ± are expanded uncertainties.

Conditions: Gas

SMILES: [C-]#[O+] [carbon monoxide]
- viscosity (288.72 K, Mass density=0.52 kg/m3): 0.01732 ± 0.00012 mPa·s
- viscosity (288.91 K, Mass density=0.78 kg/m3): 0.01733 ± 0.00012 mPa·s
- viscosity (292.39 K, Mass density=0.52 kg/m3): 0.0175 ± 0.00012 mPa·s
- viscosity (296.53 K, Mass density=0.78 kg/m3): 0.0177 ± 0.00013 mPa·s
- viscosity (296.67 K, Mass density=0.78 kg/m3): 0.0177 ± 0.00013 mPa·s
- viscosity (296.74 K, Mass density=0.52 kg/m3): 0.01769 ± 0.00013 mPa·s
- viscosity (296.81 K, Mass density=0.52 kg/m3): 0.0177 ± 0.00013 mPa·s
- viscosity (297.19 K, Mass density=0.52 kg/m3): 0.01771 ± 0.00013 mPa·s
- viscosity (298.54 K, Mass density=0.52 kg/m3): 0.01778 ± 0.00013 mPa·s
- viscosity (298.58 K, Mass density=0.52 kg/m3): 0.01778 ± 0.00013 mPa·s
- viscosity (299.09 K, Mass density=0.52 kg/m3): 0.0178 ± 0.00013 mPa·s
- viscosity (299.27 K, Mass density=0.52 kg/m3): 0.01781 ± 0.00013 mPa·s
- viscosity (323.27 K, Mass density=0.78 kg/m3): 0.0189 ± 0.00013 mPa·s
- viscosity (323.95 K, Mass density=0.52 kg/m3): 0.01894 ± 0.00013 mPa·s
- viscosity (349.98 K, Mass density=0.78 kg/m3): 0.02007 ± 0.00014 mPa·s
- viscosity (350.09 K, Mass density=0.52 kg/m3): 0.02007 ± 0.00014 mPa·s
- viscosity (377.57 K, Mass density=0.78 kg/m3): 0.02123 ± 0.00015 mPa·s
- viscosity (377.81 K, Mass density=0.52 kg/m3): 0.02123 ± 0.00015 mPa·s
- viscosity (405.3 K, Mass density=0.78 kg/m3): 0.02235 ± 0.00015 mPa·s
- viscosity (405.55 K, Mass density=0.52 kg/m3): 0.02236 ± 0.00015 mPa·s
- viscosity (433.29 K, Mass density=0.78 kg/m3): 0.02345 ± 0.00016 mPa·s
- viscosity (433.45 K, Mass density=0.52 kg/m3): 0.02345 ± 0.00016 mPa·s
- viscosity (461.39 K, Mass density=0.78 kg/m3): 0.02452 ± 0.00016 mPa·s
- viscosity (461.45 K, Mass density=0.52 kg/m3): 0.02451 ± 0.00016 mPa·s
- viscosity (489.68 K, Mass density=0.78 kg/m3): 0.02558 ± 0.00017 mPa·s
- viscosity (489.81 K, Mass density=0.52 kg/m3): 0.02557 ± 0.00017 mPa·s
- viscosity (518.13 K, Mass density=0.78 kg/m3): 0.02659 ± 0.00018 mPa·s
- viscosity (518.44 K, Mass density=0.52 kg/m3): 0.0266 ± 0.00018 mPa·s
- viscosity (542.05 K, Mass density=0.52 kg/m3): 0.02744 ± 0.00018 mPa·s
- viscosity (542.09 K, Mass density=0.78 kg/m3): 0.02744 ± 0.00018 mPa·s
- viscosity (564.73 K, Mass density=0.78 kg/m3): 0.02822 ± 0.00019 mPa·s
- viscosity (593.37 K, Mass density=0.52 kg/m3): 0.02919 ± 0.00019 mPa·s
- viscosity (593.52 K, Mass density=0.78 kg/m3): 0.0292 ± 0.00019 mPa·s
- viscosity (622.5 K, Mass density=0.52 kg/m3): 0.03015 ± 0.0002 mPa·s
- viscosity (622.67 K, Mass density=0.78 kg/m3): 0.03016 ± 0.0002 mPa·s
- viscosity (651.51 K, Mass density=0.78 kg/m3): 0.0311 ± 0.0002 mPa·s
- viscosity (651.68 K, Mass density=0.52 kg/m3): 0.0311 ± 0.0002 mPa·s
- viscosity (680.94 K, Mass density=0.78 kg/m3): 0.03203 ± 0.00021 mPa·s
- viscosity (681.07 K, Mass density=0.52 kg/m3): 0.03203 ± 0.00021 mPa·s

SMILES: N#N [nitrogen]
- viscosity (291.55 K, Mass density=0.72 kg/m3): 0.01747 ± 0.00012 mPa·s
- viscosity (294.73 K, Mass density=0.72 kg/m3): 0.01762 ± 0.00013 mPa·s
- viscosity (296.88 K, Mass density=0.72 kg/m3): 0.01771 ± 0.00013 mPa·s
- viscosity (324 K, Mass density=0.72 kg/m3): 0.01894 ± 0.00013 mPa·s
- viscosity (350.42 K, Mass density=0.72 kg/m3): 0.02009 ± 0.00014 mPa·s
- viscosity (378.04 K, Mass density=0.72 kg/m3): 0.02125 ± 0.00015 mPa·s
- viscosity (405.75 K, Mass density=0.72 kg/m3): 0.02237 ± 0.00015 mPa·s
- viscosity (433.79 K, Mass density=0.72 kg/m3): 0.02347 ± 0.00016 mPa·s
- viscosity (461.81 K, Mass density=0.72 kg/m3): 0.02453 ± 0.00016 mPa·s
- viscosity (490.21 K, Mass density=0.72 kg/m3): 0.02559 ± 0.00017 mPa·s
- viscosity (518.59 K, Mass density=0.72 kg/m3): 0.02661 ± 0.00018 mPa·s
- viscosity (542.47 K, Mass density=0.72 kg/m3): 0.02747 ± 0.00018 mPa·s
- viscosity (565.16 K, Mass density=0.72 kg/m3): 0.02825 ± 0.00019 mPa·s
- viscosity (594.04 K, Mass density=0.72 kg/m3): 0.02922 ± 0.00019 mPa·s
- viscosity (623.22 K, Mass density=0.72 kg/m3): 0.0302 ± 0.0002 mPa·s
- viscosity (652.36 K, Mass density=0.72 kg/m3): 0.03114 ± 0.0002 mPa·s
- viscosity (681.99 K, Mass density=0.72 kg/m3): 0.03209 ± 0.00021 mPa·s
